In data set [1] the target is Cytochrome P450 2D6 (Homo sapiens, UniProt P10635). The note with it: bti-tn-5b1-4. Further: in other assays of this panel Not Active means under 50% inhibition at 10 µM.
In data set [2] the target is cGMP-specific 3',5'-cyclic phosphodiesterase (Homo sapiens, UniProt O76074). Briefly: DRUGMATRIX: Phosphodiesterase PDE5 enzyme inhibition (substrate: [3H]cGMP + cGMP). The format is tissue-based, Platelet. To be noted: platelet; Not Active = under 50% inhibition at 10 µM.
The target of data set [3] is T1, 3-hydroxy-3-methylglutaryl-coenzyme A reductase (Homo sapiens, UniProt P04035).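 Further: enzyme inhibition assay of HMG-CoA reductase using radiolabeled [14C]HMG-CoA as substrate; in other assays of this panel Not Active means under 50% inhibition at 10 µM.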
T1 sequence (P04035 whole entry): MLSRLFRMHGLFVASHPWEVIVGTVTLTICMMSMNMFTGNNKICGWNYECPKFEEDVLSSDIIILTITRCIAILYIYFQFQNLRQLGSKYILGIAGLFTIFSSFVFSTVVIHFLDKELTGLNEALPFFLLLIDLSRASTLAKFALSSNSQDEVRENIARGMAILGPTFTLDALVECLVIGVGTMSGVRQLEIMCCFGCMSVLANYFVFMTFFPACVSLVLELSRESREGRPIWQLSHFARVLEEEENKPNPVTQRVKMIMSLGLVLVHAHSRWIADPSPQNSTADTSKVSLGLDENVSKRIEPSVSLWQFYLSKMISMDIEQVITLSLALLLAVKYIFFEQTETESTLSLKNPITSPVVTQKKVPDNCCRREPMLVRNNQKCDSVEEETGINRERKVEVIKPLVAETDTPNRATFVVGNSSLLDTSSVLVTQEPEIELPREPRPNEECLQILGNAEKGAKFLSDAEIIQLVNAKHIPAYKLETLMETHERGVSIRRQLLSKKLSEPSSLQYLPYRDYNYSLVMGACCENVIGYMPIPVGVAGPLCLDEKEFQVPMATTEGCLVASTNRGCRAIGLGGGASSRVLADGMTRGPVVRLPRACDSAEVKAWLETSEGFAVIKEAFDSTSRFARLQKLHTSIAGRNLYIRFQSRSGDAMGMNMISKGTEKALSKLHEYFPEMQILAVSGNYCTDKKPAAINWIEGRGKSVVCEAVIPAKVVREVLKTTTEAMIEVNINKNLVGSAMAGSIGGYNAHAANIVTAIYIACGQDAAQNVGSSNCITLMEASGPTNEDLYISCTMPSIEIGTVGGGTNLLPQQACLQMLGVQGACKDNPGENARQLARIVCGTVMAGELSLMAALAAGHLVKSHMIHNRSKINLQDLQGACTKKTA
Further details: species or system Escherichia coli.

For data set [4], the target named is Vascular endothelial growth factor receptor 1 (Homo sapiens, UniProt P17948). The format is cell-based. To be noted: huvec. Further: in other assays of this panel Not Active means under 50% inhibition at 10 µM.
Data set [5] can be described thus: DRUGMATRIX: Glutamate, AMPA radioligand binding (ligand: [3H] AMPA). The data set is classed as cell membranes, Rattus norvegicus, Wistar, Cerebral cortex, Membrane. The note with it: Not Active = under 50% inhibition at 10 µM.
The target in data set [6] is Beta-1 adrenergic receptor (Homo sapiens, UniProt P08588). As to the kind of experiment: DRUGMATRIX: Adrenergic beta1 radioligand binding (ligand: [125I] Cyanopindolol). The data set is classed as cell membranes, CHO-K1, Membrane. To be noted: cho-k1; Not Active = under 50% inhibition at 10 µM.
The target in data set [7] is 5-hydroxytryptamine receptor 1B (Rattus norvegicus, UniProt P28564). The format is cell membranes, Wistar, Cerebral cortex, Membrane. Further: in other assays of this panel Not Active means under 50% inhibition at 10 µM.
Sequence of 5-hydroxytryptamine receptor 1B (P28564 whole entry): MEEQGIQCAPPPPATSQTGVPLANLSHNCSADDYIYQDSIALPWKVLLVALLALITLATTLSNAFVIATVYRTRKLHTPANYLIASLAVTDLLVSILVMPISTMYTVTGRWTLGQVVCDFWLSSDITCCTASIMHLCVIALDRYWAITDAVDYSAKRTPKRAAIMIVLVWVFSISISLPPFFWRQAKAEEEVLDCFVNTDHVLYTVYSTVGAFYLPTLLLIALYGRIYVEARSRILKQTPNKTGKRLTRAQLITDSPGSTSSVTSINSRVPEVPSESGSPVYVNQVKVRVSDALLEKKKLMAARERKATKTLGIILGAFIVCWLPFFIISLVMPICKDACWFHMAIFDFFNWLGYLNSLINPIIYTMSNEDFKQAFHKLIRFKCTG

Sequence of Vascular endothelial growth factor receptor 1 (P17948 whole entry): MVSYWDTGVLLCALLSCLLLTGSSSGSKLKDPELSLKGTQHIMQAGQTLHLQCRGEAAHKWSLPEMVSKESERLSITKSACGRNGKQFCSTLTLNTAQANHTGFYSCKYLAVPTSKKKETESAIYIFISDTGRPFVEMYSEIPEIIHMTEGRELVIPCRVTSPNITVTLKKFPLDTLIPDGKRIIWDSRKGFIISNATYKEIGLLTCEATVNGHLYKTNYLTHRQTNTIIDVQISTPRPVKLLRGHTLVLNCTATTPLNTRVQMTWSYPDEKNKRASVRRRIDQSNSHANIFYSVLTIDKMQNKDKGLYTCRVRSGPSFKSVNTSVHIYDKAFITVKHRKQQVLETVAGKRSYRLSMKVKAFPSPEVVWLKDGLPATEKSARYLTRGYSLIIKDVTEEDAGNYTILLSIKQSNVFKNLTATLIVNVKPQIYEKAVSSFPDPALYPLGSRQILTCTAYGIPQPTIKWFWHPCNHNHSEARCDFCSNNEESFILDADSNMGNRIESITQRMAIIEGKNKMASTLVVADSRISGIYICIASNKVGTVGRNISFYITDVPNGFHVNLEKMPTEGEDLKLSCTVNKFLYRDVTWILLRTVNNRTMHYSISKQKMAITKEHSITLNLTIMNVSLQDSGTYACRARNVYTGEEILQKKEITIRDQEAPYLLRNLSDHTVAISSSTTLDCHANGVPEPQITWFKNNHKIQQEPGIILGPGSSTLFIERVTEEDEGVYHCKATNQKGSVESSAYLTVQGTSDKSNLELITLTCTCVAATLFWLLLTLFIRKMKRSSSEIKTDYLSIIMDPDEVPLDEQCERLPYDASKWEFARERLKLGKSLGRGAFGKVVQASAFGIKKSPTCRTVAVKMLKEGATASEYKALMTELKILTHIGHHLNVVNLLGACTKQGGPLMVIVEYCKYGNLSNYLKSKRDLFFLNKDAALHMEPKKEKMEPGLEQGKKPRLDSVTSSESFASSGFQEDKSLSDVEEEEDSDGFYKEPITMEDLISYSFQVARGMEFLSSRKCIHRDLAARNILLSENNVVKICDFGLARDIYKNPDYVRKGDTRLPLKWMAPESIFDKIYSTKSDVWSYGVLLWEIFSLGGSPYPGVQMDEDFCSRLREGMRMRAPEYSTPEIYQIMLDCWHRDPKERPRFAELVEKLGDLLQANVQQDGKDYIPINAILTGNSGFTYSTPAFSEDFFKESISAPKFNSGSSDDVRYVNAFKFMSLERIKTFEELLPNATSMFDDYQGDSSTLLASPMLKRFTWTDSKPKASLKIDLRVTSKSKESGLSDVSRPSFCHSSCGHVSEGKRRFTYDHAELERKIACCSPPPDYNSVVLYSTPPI
Sequence of Cytochrome P450 2D6 (P10635 whole entry): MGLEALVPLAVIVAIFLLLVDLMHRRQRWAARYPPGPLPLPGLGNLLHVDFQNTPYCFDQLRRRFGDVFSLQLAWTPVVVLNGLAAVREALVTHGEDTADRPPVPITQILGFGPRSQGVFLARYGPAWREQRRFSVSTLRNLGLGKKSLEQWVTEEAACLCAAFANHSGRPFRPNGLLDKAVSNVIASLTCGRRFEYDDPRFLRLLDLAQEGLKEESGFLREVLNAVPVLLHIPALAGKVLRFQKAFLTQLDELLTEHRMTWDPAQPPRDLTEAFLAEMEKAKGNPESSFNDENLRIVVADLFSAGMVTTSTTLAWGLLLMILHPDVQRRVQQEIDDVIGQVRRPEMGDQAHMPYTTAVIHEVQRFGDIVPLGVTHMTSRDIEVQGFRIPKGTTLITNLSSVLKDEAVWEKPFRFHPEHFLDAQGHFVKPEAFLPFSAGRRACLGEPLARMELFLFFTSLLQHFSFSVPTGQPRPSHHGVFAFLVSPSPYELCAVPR
Sequence of Beta-1 adrenergic receptor (P08588 whole entry): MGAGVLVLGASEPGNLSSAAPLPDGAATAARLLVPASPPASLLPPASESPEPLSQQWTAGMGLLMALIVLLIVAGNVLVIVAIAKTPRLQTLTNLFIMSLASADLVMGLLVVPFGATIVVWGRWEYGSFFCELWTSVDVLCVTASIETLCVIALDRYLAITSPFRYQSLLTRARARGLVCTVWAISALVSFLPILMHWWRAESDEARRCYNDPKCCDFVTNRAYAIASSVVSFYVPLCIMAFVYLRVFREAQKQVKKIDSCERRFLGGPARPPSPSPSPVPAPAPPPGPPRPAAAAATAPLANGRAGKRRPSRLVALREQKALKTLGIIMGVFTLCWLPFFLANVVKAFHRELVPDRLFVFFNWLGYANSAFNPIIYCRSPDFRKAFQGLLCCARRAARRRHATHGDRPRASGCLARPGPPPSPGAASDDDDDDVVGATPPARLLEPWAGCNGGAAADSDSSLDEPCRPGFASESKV

`O=C(O)c1cc(-c2ccc(F)cc2F)ccc1O` [DIFLUNISAL]: the IC50 result in data set [1], in data set [2], in data set [3], in data set [4], in data set [5] and in data set [6] was “Not Active” throughout. Moreover, the half-inhibitory concentration (IC50) entry in data set [7] is “Not Active”. Also, the Ki result in data set [1] and in data set [5] was “Not Active” throughout.

On to `C[S+](C)[O-]` [DIMETHYL SULFOXIDE], for which the IC50 result in data set [1], in data set [2], in data set [3], in data set [4], in data set [5] and in data set [6] was “Not Active” each time. In addition, the IC50 entry in data set [7] is “Not Active”. In addition, the Ki entry in data set [1] and in data set [5] was “Not Active” throughout.

`CC1=NN(c2ccccc2)C(=O)C1` [EDARAVONE]: the 50% inhibitory concentration (IC50) result in data set [1], in data set [2], in data set [3], in data set [4], in data set [5] and in data set [6] was “Not Active” each time. Moreover, in data set [7], the IC50 entry is given as “Not Active”. Besides, the Ki entry in data set [1] and in data set [5] was “Not Active” each time.

In the case of `CC(C)C[C@H]1C(=O)N2CCC[C@H]2[C@]2(O)O[C@](NC(=O)[C@@H]3C=C4c5cccc6[nH]cc(c56)C[C@H]4N(C)C3)(C(C)C)C(=O)N12` [ERGOCRYPTINE], the IC50 result in data set [1], in data set [2], in data set [3], in data set [4], in data set [5] and in data set [6] was “Not Active” throughout. The IC50 in data set [7] (read-out: IC50) was determined as 8.2 nM. Also, the Ki entry in data set [1] was “Not Active”; in data set [5], “Not Active”; in data set [7] (read-out: Ki), 5.02 nM.

In the case of `C[C@]12CC[C@@H]3c4ccc(O)cc4CC[C@H]3[C@@H]1C[C@@H](O)[C@@H]2O` [ESTRIOL], the IC50 entry in data set [1], in data set [2], in data set [3], in data set [4], in data set [5] and in data set [6] was “Not Active” each time. Also, the IC50 result in data set [7] is recorded as “Not Active”. The Ki entry in data set [1] and in data set [5] was “Not Active” each time.

As for `C#C[C@]1(O)CC[C@H]2[C@@H]3CCC4=CC(=O)CC[C@]4(C)[C@H]3CC[C@@]21C` [ETHISTERONE], the IC50 result in data set [1], in data set [2], in data set [3], in data set [4], in data set [5] and in data set [6] was “Not Active” in each case. Further, the IC50 result in data set [7] is recorded as “Not Active”. Further, the Ki result in data set [1] and in data set [5] was “Not Active” throughout.

Regarding `CC(O)(P(=O)(O)O)P(=O)(O)O` [ETIDRONIC ACID], the IC50 entry in data set [1], in data set [2], in data set [3], in data set [4], in data set [5] and in data set [6] was “Not Active” each time. Further, in data set [7], the IC50 result is listed as “Not Active”. In addition, the Ki entry in data set [1] and in data set [5] was “Not Active” throughout.

On to `CN1CCN(c2c(F)cc3c(=O)c(C(=O)O)cn(CCF)c3c2F)CC1` [FLEROXACIN], for which the IC50 entry in data set [1], in data set [2], in data set [3], in data set [4], in data set [5] and in data set [6] was “Not Active” each time. Moreover, the IC50 result in data set [7] is “Not Active”. For the same compound, the Ki result in data set [1] and in data set [5] was “Not Active” each time.

For `O=c1[nH]c(=O)n([C@H]2C[C@H](O)[C@@H](CO)O2)cc1F` [FLOXURIDINE], the IC50 result in data set [1], in data set [2], in data set [3], in data set [4], in data set [5] and in data set [6] was “Not Active” throughout. For the same compound, the IC50 result in data set [7] was “Not Active”. The Ki entry in data set [1] and in data set [5] was “Not Active” in each case.

Take `COC(=O)Nc1nc2cc(C(=O)c3ccc(F)cc3)ccc2[nH]1` [FLUBENDAZOLE]: the IC50 result in data set [1], in data set [2], in data set [3], in data set [4], in data set [5] and in data set [6] was “Not Active” throughout. The IC50 entry in data set [7] is listed as “Not Active”. In addition, the Ki entry in data set [1] and in data set [5] was “Not Active” in each case.

As to `CC(=O)OCC(=O)[C@@]1(O)CC[C@H]2[C@@H]3CCC4=CC(=O)CC[C@]4(C)[C@@]3(F)[C@@H](O)C[C@@]21C` [FLUDROCORTISONE ACETATE], the IC50 entry in data set [1], in data set [2], in data set [3], in data set [4], in data set [5] and in data set [6] was “Not Active” each time. In data set [7], the IC50 result is reported as “Not Active”. Also, the Ki entry in data set [1] and in data set [5] was “Not Active” throughout.

`CCOC(=O)c1ncn2c1CN(C)C(=O)c1cc(F)ccc1-2` [FLUMAZENIL]: the IC50 entry in data set [1], in data set [2], in data set [3], in data set [4], in data set [5] and in data set [6] was “Not Active” throughout. Moreover, in data set [7], the IC50 entry was “Not Active”. Further, the Ki result in data set [1] and in data set [5] was “Not Active” each time.

Take `O=C(O)P(=O)(O)O` [FOSCARNET]: the IC50 entry in data set [1], in data set [2], in data set [3], in data set [4], in data set [5] and in data set [6] was “Not Active” each time. Further, the IC50 result in data set [7] is “Not Active”. Further, the Ki entry in data set [1] and in data set [5] was “Not Active” in each case.

Consider `Cc1ccc(C)c(OCCCC(C)(C)C(=O)O)c1` [GEMFIBROZIL], for which the IC50 entry in data set [1], in data set [2], in data set [3], in data set [4], in data set [5] and in data set [6] was “Not Active” in each case. The IC50 result in data set [7] is on record as “Not Active”. For the same compound, the Ki entry in data set [1] and in data set [5] was “Not Active” in each case.

For the compound `O=c1c(-c2ccc(O)cc2)coc2cc(O)cc(O)c12` [GENISTEIN], the IC50 result in data set [1], in data set [2], in data set [3], in data set [4], in data set [5] and in data set [6] was “Not Active” throughout. Further, in data set [7], the IC50 result is on record as “Not Active”. Also, the Ki entry in data set [1] and in data set [5] was “Not Active” each time.

As to `CCC1=C(C)CN(C(=O)NCCc2ccc(S(=O)(=O)NC(=O)N[C@H]3CC[C@H](C)CC3)cc2)C1=O` [GLIMEPIRIDE], the IC50 result in data set [1], in data set [2], in data set [3], in data set [4], in data set [5] and in data set [6] was “Not Active” throughout. Also, in data set [7], the IC50 entry is “Not Active”. The Ki entry in data set [1] and in data set [5] was “Not Active” each time.

Regarding `Nc1cc(-c2ccncc2)c[nH]c1=O` [INAMRINONE], the IC50 result in data set [1], in data set [2], in data set [3], in data set [4], in data set [5] and in data set [6] was “Not Active” in each case. For the same compound, in data set [7], the IC50 entry is “Not Active”. The Ki result in data set [1] and in data set [5] was “Not Active” in each case.

In the case of `CCCCC1=NC2(CCCC2)C(=O)N1Cc1ccc(-c2ccccc2-c2nnn[nH]2)cc1` [IRBESARTAN], the IC50 entry in data set [1], in data set [2], in data set [3], in data set [4], in data set [5] and in data set [6] was “Not Active” each time. For the same compound, the IC50 entry in data set [7] was “Not Active”. The Ki result in data set [1] and in data set [5] was “Not Active” throughout.

On to `C[N+](C)(C)C[C@H](O)CC(=O)[O-]` [LEVOCARNITINE], for which the IC50 result in data set [1], in data set [2], in data set [3], in data set [4], in data set [5] and in data set [6] was “Not Active” each time. For the same compound, the IC50 entry in data set [7] is “Not Active”. The Ki entry in data set [1] and in data set [5] was “Not Active” each time.

The term IC50 denotes the midpoint of a concentration-inhibition curve. In general, Ki refers to the equilibrium dissociation constant of an inhibitor or competing ligand from its target.

These data come from ChEMBL document CHEMBL1909046, “DrugMatrix in vitro pharmacology data”.
